Test systems include HT-29; HOP-62; A498; OVCAR-4; NCI/ADR-RES; HCT-116; SNB-75; BT-549; Malme-3M; RXF 393; IGROV-1; UACC-257; K562; SW-620; PC-3; TK-10; SNB-19; A549; OVCAR-8; NCI-H460.
Holding throughout (test): NCI tumour cell line growth inhibition, 48 h

From ChEMBL document CHEMBL1201862, “PubChem BioAssay data set” (2004) come the findings set out here.

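Five concentrations, 48 hours, 96-well plates. GI50 = concentration required for 50% inhibition of growth.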 The source made the active and inactive calls. No stated cut-off is given here; in the data, active = GI50 up to about 1.1 µM and inactive = higher.

With `Cc1nc2ccc(S(=O)(=O)O)cc2c(=O)n1-c1ccc(C(=O)NN2C(=O)C(Cl)C2c2ccccc2O)cc1` (stereo not given), the GI50 in the test on HT-29 is > 100 µM (inactive); in the test with HOP-62 it was 53.5 µM (inactive); in the test with A498 it was > 100 µM (inactive); with OVCAR-4 it was > 100 µM (inactive); in the test on NCI/ADR-RES, > 100 µM (inactive); in the test on HCT-116, > 100 µM (inactive). Also, the GI50 with SNB-75, with BT-549, with Malme-3M, with RXF 393, with IGROV-1 and in the test with UACC-257 was > 100 µM (inactive) throughout. Further, the GI50 with K562, with SW-620, with PC-3, in the test on TK-10, in the test with SNB-19 and in the test on A549 was > 100 µM (inactive) each time. Moreover, the GI50 with OVCAR-8 is > 100 µM (inactive).

On to `O=C1c2cccc3cc([N+](=O)[O-])cc(c23)C(=O)N1CCCN1CCN(CCCNc2ccc3ncn4c5ccccc5c(=O)c2c34)CC1`, for which the GI50 with NCI-H460 was < 0.005 µM (active); with HT-29, < 0.005 µM (active); in the test with HOP-62 it was < 0.005 µM (active); with A498, < 0.005 µM (active); in the test with OVCAR-4 it was 0.00547 µM (active); with NCI/ADR-RES, < 0.005 µM (active). The GI50 with HCT-116, with SNB-75, with BT-549, in the test with Malme-3M, in the test with RXF 393 and in the test on IGROV-1 was < 0.005 µM (active) each time. The GI50 with UACC-257, in the test with SW-620, with PC-3, in the test on TK-10, with SNB-19 and in the test with A549 was < 0.005 µM (active) throughout. The GI50 in the test on OVCAR-8 is < 0.005 µM (active).

`COc1cccc2c1C(=O)c1ccc3cc(CCl)cc(O)c3c1C2=O`: the GI50 is 0.196 µM (active) in the test with NCI-H460; 0.207 µM (active) in the test on HT-29; 0.483 µM (active) in the test with HOP-62; 1.19 µM (inactive) with A498; 0.353 µM (active) in the test with NCI/ADR-RES; 0.1 µM (active) with HCT-116. Besides, the GI50 in the test on SNB-75 is 0.94 µM (active); in the test on BT-549, 0.305 µM (active); in the test on Malme-3M it was 0.188 µM (active); in the test on RXF 393, 0.244 µM (active); in the test on IGROV-1, 1.03 µM (active); in the test with UACC-257, 0.269 µM (active). For the same molecule, the GI50 with K562 is 0.29 µM (active); in the test with SW-620 it was 0.127 µM (active); with PC-3 it was 0.243 µM (active); in the test on TK-10, 0.238 µM (active); in the test with SNB-19, 0.897 µM (active); in the test with A549 it was 0.414 µM (active). In addition, the GI50 in the test with OVCAR-8 was 0.228 µM (active).

Turning to `C/C(=N\NC(=S)N1CCCCCC1)c1cccc2cccnc12`, the GI50 was 0.681 µM (active) with NCI-H460; 1.4 µM (inactive) in the test on HT-29; 1.15 µM (inactive) in the test on HOP-62; 5.64 µM (inactive) in the test with A498; 1.03 µM (active) with NCI/ADR-RES; 0.634 µM (active) in the test with HCT-116. The GI50 in the test on SNB-75 was 23 µM (inactive); in the test with BT-549, 16 µM (inactive); in the test on Malme-3M it was 3.17 µM (inactive); in the test on RXF 393, > 26.4 µM (inactive); with IGROV-1, 1.86 µM (inactive); in the test on UACC-257, 2.58 µM (inactive). Moreover, the GI50 is 0.131 µM (active) in the test with K562; 1.55 µM (inactive) in the test on SW-620; 3.81 µM (inactive) in the test with PC-3; 2.48 µM (inactive) with TK-10; 1.76 µM (inactive) with SNB-19; 1.13 µM (inactive) in the test with A549. Further, the GI50 with OVCAR-8 is 1.38 µM (inactive).

Take `O=C1C(Cl)C2(CC(/C=C/c3ccccc3O)=NN2c2cccc(S(=O)(=O)O)c2)N1c1nc2ccccc2s1` (stereo not given): the GI50 in the test on NCI-H460 was 15.1 µM (inactive); with HT-29 it was 18.6 µM (inactive); with A498, 20.9 µM (inactive); in the test on OVCAR-4, 13.4 µM (inactive); in the test on NCI/ADR-RES, 36.1 µM (inactive); in the test on HCT-116, 15.4 µM (inactive). For the same molecule, the GI50 with SNB-75 was 38.8 µM (inactive); with BT-549, 18.1 µM (inactive); in the test on Malme-3M, 13.8 µM (inactive); in the test on RXF 393, 37.6 µM (inactive); in the test on IGROV-1 it was 14.9 µM (inactive); in the test with UACC-257 it was 16.1 µM (inactive). Besides, the GI50 in the test with K562 was 20.2 µM (inactive); with SW-620, 17.4 µM (inactive); in the test with PC-3, 24.8 µM (inactive); in the test on TK-10 it was 12.3 µM (inactive); with SNB-19 it was 30.8 µM (inactive); in the test with A549, 23.7 µM (inactive). The GI50 in the test on OVCAR-8 is 24.3 µM (inactive).

In the case of `COc1ccc(C(=C2C(=O)OC(=O)C2=C(C)C)c2ccc(OC)cc2)cc1`, the GI50 is > 100 µM (inactive) in the test on NCI-H460; 48 µM (inactive) with HT-29; 45.8 µM (inactive) with HOP-62; > 100 µM (inactive) in the test on A498; 29.6 µM (inactive) with OVCAR-4; 39.5 µM (inactive) in the test on NCI/ADR-RES. Moreover, the GI50 in the test on HCT-116 is > 100 µM (inactive); in the test with SNB-75 it was > 100 µM (inactive); in the test on BT-549, 70.5 µM (inactive); in the test on Malme-3M it was 92 µM (inactive); in the test on RXF 393, > 100 µM (inactive); in the test on IGROV-1, 54 µM (inactive). Besides, the GI50 in the test on UACC-257 was > 100 µM (inactive); in the test on SW-620, > 100 µM (inactive); in the test on PC-3 it was 60.4 µM (inactive); with TK-10, > 100 µM (inactive); in the test with SNB-19, 57.4 µM (inactive); with A549, 67.6 µM (inactive). For the same molecule, in the test with OVCAR-8, the GI50 was 47.4 µM (inactive).

For the molecule `COC(=O)CC(C#N)(OP1(=O)OC(c2ccccc2)C(C)N1C)c1ccccc1` (stereo not given), the GI50 in the test with NCI-H460 was 20.4 µM (inactive); with HT-29, 23.8 µM (inactive); with HOP-62, 30.7 µM (inactive); in the test with A498 it was 44.6 µM (inactive); in the test on NCI/ADR-RES, 40.1 µM (inactive); in the test on HCT-116 it was 24.2 µM (inactive). Besides, the GI50 with SNB-75 was 43.4 µM (inactive); in the test on BT-549 it was 36.2 µM (inactive); in the test on Malme-3M, 41.8 µM (inactive); with RXF 393 it was 20.6 µM (inactive); in the test on IGROV-1, 34.4 µM (inactive); in the test on UACC-257, 20.6 µM (inactive). The GI50 with K562 was 24.3 µM (inactive); in the test with SW-620, 17.3 µM (inactive); in the test with PC-3 it was 37 µM (inactive); with TK-10, 29 µM (inactive); in the test with SNB-19, 39.3 µM (inactive); with A549, 34.3 µM (inactive). In addition, in the test with OVCAR-8, the GI50 is 22.8 µM (inactive).

Turning to `CC1=NN(c2nc(N)nc(/C(C#N)=C/c3cccn3-c3cc(Cl)cc(Cl)c3)n2)C(C)(C)C1`, the GI50 was > 100 µM (inactive) in the test on NCI-H460; > 100 µM (inactive) in the test with HT-29; 10.1 µM (inactive) with HOP-62; > 100 µM (inactive) with A498; > 100 µM (inactive) in the test with OVCAR-4; > 100 µM (inactive) with NCI/ADR-RES. For the same molecule, the GI50 with HCT-116 is > 100 µM (inactive); in the test with SNB-75, 17 µM (inactive); in the test with BT-549, > 100 µM (inactive); in the test on Malme-3M it was > 100 µM (inactive); in the test on RXF 393, > 100 µM (inactive); in the test with IGROV-1, > 100 µM (inactive). Further, the GI50 in the test on UACC-257 is > 100 µM (inactive); with SW-620 it was > 100 µM (inactive); with PC-3 it was 11.5 µM (inactive); in the test on TK-10, > 100 µM (inactive); in the test with SNB-19, 40.6 µM (inactive); with A549, > 100 µM (inactive). In addition, the GI50 in the test with OVCAR-8 was 12 µM (inactive).

For the molecule `Cc1cc(N(CCC#N)CCC#N)ccc1/C=C(\NC(=O)/C=C/c1ccccc1)C(=O)Nc1ccc(Cl)cc1`, the GI50 in the test on NCI-H460 was 52.4 µM (inactive); with HT-29, > 14.3 µM (inactive); in the test on A498 it was > 100 µM (inactive); in the test with OVCAR-4 it was 30.5 µM (inactive); with NCI/ADR-RES, > 100 µM (inactive); with HCT-116, 5.41 µM (inactive). The GI50 in the test with SNB-75 is > 52.4 µM (inactive); in the test on BT-549, > 100 µM (inactive); in the test on Malme-3M, 14.2 µM (inactive); with RXF 393, > 68.9 µM (inactive); in the test with IGROV-1, 7.62 µM (inactive); in the test with UACC-257, > 46 µM (inactive). Further, the GI50 is 0.364 µM (active) in the test with K562; 12.3 µM (inactive) in the test on SW-620; 0.586 µM (active) with PC-3; > 100 µM (inactive) in the test with TK-10; > 100 µM (inactive) with SNB-19; > 36.5 µM (inactive) with A549. For the same molecule, the GI50 in the test with OVCAR-8 was > 100 µM (inactive).

For the molecule `CN(C)c1ccc(/C=C2\CCCCCC2=O)cc1`, the GI50 in the test with NCI-H460 was 31.6 µM (inactive); in the test with HT-29 it was > 100 µM (inactive); with HOP-62, 66.7 µM (inactive); with A498, > 100 µM (inactive); in the test on NCI/ADR-RES it was > 100 µM (inactive); with HCT-116 it was 57.3 µM (inactive). Besides, the GI50 was > 100 µM (inactive) in the test with SNB-75; 81.5 µM (inactive) in the test with BT-549; > 100 µM (inactive) with Malme-3M; > 100 µM (inactive) in the test with RXF 393; > 100 µM (inactive) in the test on IGROV-1; 74.3 µM (inactive) in the test with UACC-257. For the same molecule, the GI50 in the test on K562 is > 100 µM (inactive); in the test on SW-620 it was > 100 µM (inactive); in the test on PC-3, 65 µM (inactive); with TK-10, > 100 µM (inactive); in the test with SNB-19 it was > 100 µM (inactive); with A549, > 100 µM (inactive). Further, in the test on OVCAR-8, the GI50 was > 100 µM (inactive).
